In the assay the target is Squalene synthase (Candida albicans). Nature of the assay: Compound was tested for in vitro inhibitory activity against Candida albicans 2005E microsomal SQS.

The values that follow come from BindingDB's records for doi:10.1021/jm00046a011 (Glaxo Research and Development, 1994).

The term IC50 denotes the concentration that inhibits the measured activity by half.

The molecule `CC[C@H](C)C[C@H](C)CCC(=O)O[C@@H]1[C@@H](O)[C@@]2(CCC(C)[C@H](OC(C)=O)[C@@H](C)Cc3ccccc3)O[C@H](C(=O)O)[C@@](O)(C(=O)O)[C@]1(C(=O)O)O2` (stereo partly drawn) [(1S,3S,4S,5R,6R,7R)-1-((4S,5S)-4-Acetoxy-3,5-dimethyl-6-phenyl-hexyl)-6-((4R,6S)-4,6-dimethyl-octanoyloxy)-4,7-dihydroxy-2,8-dioxa-bicyclo[3.2.1]octane-3,4,5-tricarboxylic acid] yielded an IC50 of 7 nM.

Regarding `CC(CC[C@]12O[C@H](C(=O)O)[C@@](O)(C(=O)O)[C@](C(=O)O)(O1)[C@H](O)[C@H]2O)C[C@@H](C)Cc1ccccc1` (stereo partly drawn) [(1S,3S,4S,5R,6R,7R)-1-((R)-3,5-Dimethyl-6-phenyl-hexyl)-4,6,7-trihydroxy-2,8-dioxa-bicyclo[3.2.1]octane-3,4,5-tricarboxylic acid], it took 200 nM to reach half-maximal inhibition (IC50).
